Nc1ccc(S(=O)(=O)Nc2ncccn2)cc1
solubility (mole fraction)
Settings | 278.15 K | 283.15 K | 288.15 K | 293.15 K | 298.15 K | 303.15 K | 308.15 K | 313.15 K | 318.15 K
in ethylene glycol | 0.00034 | 0.000379 | 0.000413 | 0.00047 | 0.000532 | 0.000575 | 0.000637 | 0.000694 | 0.000752
in water | 1.61e-06 | 2.01e-06 | 2.86e-06 | 3.8e-06 | 4.81e-06 | 6.49e-06 | 8.69e-06 | 1.14e-05 | 1.22e-05

— BigSolDB 2.1
